Reference: PMC6792352, “Limited Chemical Structural Diversity Found to Modulate Thyroid Hormone Receptor in the Tox21 Chemical Library” (Environmental Health Perspectives, 2019)
Where a name gives a salt, the structure may show the parent alone.

Assay: in vitro
Details: rat, gh3-tre-luc cells, AC50 (uM) modified / 1000
In the case of `CO/N=C(\C(=O)N[C@@H]1C(=O)N2C(C(=O)O)=C(CSc3nc(=O)c(=O)[nH]n3C)CS[C@H]12)c1csc(N)n1` [Ceftriaxone disodium trihydrate], the CC50 at 24 h is reported as greater than 50 µM. In the case of `COC(=O)CSc1cc(/N=c2\sc(=O)n3n2CCCC3)c(F)cc1Cl` [Fluthiacet-methyl], the CC50 at 24 h is reported as greater than 90 µM. Work on `COc1ccc(S(=O)(=O)Nc2nnc(CC(C)C)s2)cc1` [Glysobuzole] yielded a CC50 at 24 h greater than 50 µM. Compound `C[Se]CC[C@H](N)C(=O)O` [Selenomethionine] has a CC50 at 24 h greater than 50 µM. Compound `CCOc1ccc(C(C)(C)COCc2cccc(Oc3ccccc3)c2)cc1` [Etofenprox] has a CC50 at 24 h greater than 90 µM. Compound `O=C[C@H](O)[C@@H](O)[C@@H](O)[C@H](O)CO` [Galactose] has a CC50 at 24 h greater than 50 µM. Compound `Cc1cccc2sc3nncn3c12` [2,7,8,9-Tricyclazole] has a CC50 at 24 h greater than 90 µM. For `C#C[C@]1(O)CC[C@H]2[C@@H]3CCC4=CC(=O)CC[C@]4(C)[C@H]3CC[C@@]21C` [Ethisterone], the CC50 at 24 h was greater than 90 µM. Work on `CC(=O)c1cc(C)oc1C` [3-Acetyl-2,5-dimethylfuran] yielded a CC50 at 24 h greater than 90 µM. For `COc1cc(OC)c2ccc(=O)oc2c1` [5,7-Dimethoxy-2H-chromen-2-one], the CC50 at 24 h was greater than 90 µM. In the case of `CN(C)CCN(Cc1ccc(Cl)cc1)c1ccccn1` [Chloropyramine hydrochloride], the CC50 at 24 h is reported as 10.2 µM. Compound `Nc1ccc(C(=O)O)cc1` [4-Aminobenzoic acid] has a CC50 at 24 h greater than 90 µM. Work on `CO[Si](CCCS)(OC)OC` [3-Mercaptopropyltrimethoxysilane] yielded a CC50 at 24 h greater than 90 µM. Work on `CC(=O)Oc1ccc(C(C)=O)cc1` [4-Acetylphenyl acetate] yielded a CC50 at 24 h greater than 100 µM. In the case of `O=C(O)c1ccc[n+]([O-])c1` [Nicotinic acid 1-oxide], the CC50 at 24 h is reported as greater than 50 µM. With `CC(C)OC(=O)OCOP(=O)(CO[C@H](C)Cn1cnc2c(N)ncnc21)OCOC(=O)OC(C)C` [Tenofovir disoproxil fumarate] the CC50 at 24 h was greater than 50 µM. In the case of `CCCCCCCCCCC1CO1` (centres unmarked) [1,2-Epoxydodecane], the CC50 at 24 h is reported as greater than 90 µM. Compound `CC1=Nc2ccccc2C1(C)C` [2,3,3-Trimethylindolenine] has a CC50 at 24 h greater than 90 µM. Work on `Cc1c(N)cccc1[N+](=O)[O-]` [2-Methyl-3-nitroaniline] yielded a CC50 at 24 h greater than 90 µM. Work on `C[C@@H]1C[C@H]2[C@@H]3C[C@H](F)C4=CC(=O)C(Cl)=C[C@]4(C)[C@@]3(F)[C@@H](O)C[C@]2(C)[C@@]1(O)C(=O)CO` [Halometasone hydrate] yielded a CC50 at 24 h greater than 50 µM. Compound `CCCCCCCCCCO[C@@H]1O[C@H](CO)[C@@H](O)[C@H](O)[C@H]1O` [Decyl beta-D-glucopyranoside] has a CC50 at 24 h greater than 90 µM. In the case of `CCCCOC(=O)C(C)CC` (centres unmarked) [Butyl 2-methylbutyrate], the CC50 at 24 h is reported as greater than 90 µM. Compound `Cc1cccc(N)c1` [3-Methylaniline hydrochloride] has a CC50 at 24 h greater than 90 µM. Compound `CCOc1nc2cccc(C(=O)O)c2n1Cc1ccc(-c2ccccc2-c2nnn[nH]2)cc1` [Candesartan] has a CC50 at 24 h of 34.4 µM. Work on `C=C(C)[C@@H]1CCC2=CCC[C@@H](C)[C@]2(C)C1` [Valencene] yielded a CC50 at 24 h greater than 90 µM. In the case of `Cc1ccc(OC(=O)CC(C)C)cc1` [4-Methylphenyl 3-methylbutanoate], the CC50 at 24 h is reported as greater than 90 µM. Work on `CCCCC(CC)COCC1CO1` (centres unmarked) [2-Ethylhexyl glycidyl ether] yielded a CC50 at 24 h greater than 90 µM. In the case of `CCC(CO)CO` [2-Ethylpropane-1,3-diol], the CC50 at 24 h is reported as greater than 90 µM. For `Cc1ccc(Nc2nccc(N(C)c3ccc4c(C)n(C)nc4c3)n2)cc1S(N)(=O)=O` [Pazopanib], the CC50 at 24 h was greater than 50 µM. Work on `CCCCCCCCN(C)CCCCCCCC` [N-Methyldioctylamine] yielded a CC50 at 24 h greater than 90 µM. Work on `CCC(C)CO` (centres unmarked) [2-Methyl-1-butanol] yielded a CC50 at 24 h greater than 100 µM. Work on `Cc1cc(Cl)ccc1N` [4-Chloro-2-methylaniline hydrochloride] yielded a CC50 at 24 h greater than 90 µM. Compound `CC(C)(C)c1ccc(CSc2cnn(C(C)(C)C)c(=O)c2Cl)cc1` [Pyridaben] has a CC50 at 24 h of 47.4 µM. In the case of `CCC(=O)C(=O)CC` [3,4-Hexanedione], the CC50 at 24 h is reported as greater than 100 µM. Work on `CCCCC[Si](OCC)(OCC)OCC` [Triethoxypentylsilane] yielded a CC50 at 24 h greater than 90 µM. In the case of `CNC(=O)Nc1ccc(Cl)c(Cl)c1` [N-(3,4-Dichlorophenyl)-N'-methylurea], the CC50 at 24 h is reported as greater than 90 µM. Compound `CCCCC[C@@H](O)[C@H]1C(=O)O[C@H](C)[C@@H](O)/C=C/C=C/C=C/C=C/C=C(\C)[C@@H](O)[C@H](O)[C@H](O)C[C@H](O)C[C@H](O)C[C@H](O)C[C@H](O)C[C@@H]1O` [Pentamycin] has a CC50 at 24 h greater than 50 µM. Compound `CN(C)c1cc(NC(=O)CNC(C)(C)C)c(O)c2c1C[C@H]1C[C@H]3[C@H](N(C)C)C(O)=C(C(N)=O)C(=O)[C@@]3(O)C(O)=C1C2=O` [Tigecycline] has a CC50 at 24 h greater than 50 µM. `CCOC(=O)C1CC(=O)C(=C(O)C2CC2)C(=O)C1` (centres unmarked) [Trinexapac-ethyl] showed a CC50 at 24 h greater than 90 µM. With `CNCCS(=O)(=O)O` [Sodium 2-(methylamino)ethanesulfonate] the CC50 at 24 h was greater than 90 µM. `C[Si](O[Si](C)(C)C)O[Si](C)(C)C` gave a CC50 at 24 h greater than 90 µM. For `CCCCCCCCCOC(=O)c1ccccc1C(=O)OCCCCCCCCC` [Dinonyl phthalate], the CC50 at 24 h was greater than 90 µM. In the case of `CC(=O)SC[C@@H](C)C(=O)N1CCC[C@H]1C(=O)N[C@@H](Cc1ccccc1)C(=O)O` [Alacepril], the CC50 at 24 h is reported as greater than 50 µM. Work on `CCOCCOCCO` [2-(2-Ethoxyethoxy)ethanol] yielded a CC50 at 24 h greater than 90 µM. For `CN(C)C/C=C(/c1ccc(Br)cc1)c1cccnc1` [Zimeldine dihydrochloride hydrate], the CC50 at 24 h was 35.2 µM. `O=c1[nH]sc2ccccc12` [1,2-Benzisothiazolin-3-one] gave a CC50 at 24 h of 5.86 µM. In the case of `CCCCCCCOC(C)=O` [Heptyl acetate], the CC50 at 24 h is reported as greater than 90 µM. In the case of `COc1ccc(/C=C/c2cc(OC)cc(=O)o2)cc1` [Yangonin], the CC50 at 24 h is reported as greater than 40 µM. Compound `Oc1ccc2c3c1O[C@H]1[C@@H](O)CC[C@@]4(O)[C@@H](C2)N(CC2CCC2)CC[C@]314` [Nalbuphine] has a CC50 at 24 h greater than 50 µM. With `CCn1cc(C(=O)O)c(=O)c2cc3c(cc21)OCO3` [Oxolinic acid] the CC50 at 24 h was greater than 90 µM. Compound `Cc1cscn1` [4-Methylthiazole] has a CC50 at 24 h greater than 90 µM. `Nc1nc(N)c2nc(-c3ccccc3)c(N)nc2n1` [Triamterene] gave a CC50 at 24 h greater than 90 µM. `COCCOC(=O)C1=C(C)NC(C)=C(C(=O)OC/C=C/c2ccccc2)C1c1cccc([N+](=O)[O-])c1` (centres unmarked) [Cilnidipine] gave a CC50 at 24 h of 12.4 µM. In the case of `O=C(O)c1ccc([N+](=O)[O-])cc1` [4-Nitrobenzoic acid], the CC50 at 24 h is reported as greater than 90 µM. With `CCCCNC(=S)NCCCC` [N,N'-Dibutylthiourea] the CC50 at 24 h was greater than 90 µM. `CC#N` [Acetonitrile] showed a CC50 at 24 h greater than 90 µM. `C/C=C(\C)C(=O)OCc1ccccc1` [Benzyl tiglate] showed a CC50 at 24 h greater than 90 µM. `CCC1Nc2cc(Cl)c(S(N)(=O)=O)cc2S(=O)(=O)N1` (centres unmarked) [Ethiazide] gave a CC50 at 24 h greater than 50 µM. For `O=NN1CCCCCCC1` [Nitrosoheptamethyleneimine], the CC50 at 24 h was greater than 90 µM. With `O=C(Oc1ccccc1)c1ccccc1` [Phenyl benzoate] the CC50 at 24 h was greater than 90 µM. With `CC1OC(=O)C(C)OC1=O` (centres unmarked) [3,6-Dimethyl-2,5-dioxo-1,4-dioxane] the CC50 at 24 h was greater than 90 µM. Compound `CCOC(=O)CCC(C)=O` [Ethyl levulinate] has a CC50 at 24 h greater than 90 µM. Work on `CCCO[Si](OCCC)(OCCC)OCCC` [Tetrapropyl orthosilicate] yielded a CC50 at 24 h greater than 90 µM. For `CCCC(=O)c1ccccc1` [Butyrophenone], the CC50 at 24 h was greater than 90 µM. Compound `CCOCC(O)COc1ccc(NC(=O)CC[S+](C)C)cc1` (centres unmarked) [Suplatast tosylate] has a CC50 at 24 h greater than 50 µM. Compound `O=C1NCC2(CCN(CCc3ccccc3)CC2)O1` [Fenspiride hydrochloride] has a CC50 at 24 h greater than 50 µM. Work on `C1CN(P2(N3CC3)=NP(N3CC3)(N3CC3)=NP(N3CC3)(N3CC3)=N2)CCO1` (centres unmarked) [Fotretamine] yielded a CC50 at 24 h greater than 50 µM. In the case of `Cc1coc2c1CCC(C)C2` (centres unmarked) [Menthofuran], the CC50 at 24 h is reported as greater than 90 µM. `NCCCNCCCN` [Norspermidine] showed a CC50 at 24 h of 57.5 µM. For `Nc1nc(Cl)nc2c1ncn2[C@@H]1O[C@H](CO)[C@@H](O)[C@@H]1F` [Clofarabine], the CC50 at 24 h was 0.263 µM. With `COc1cc(S(=O)(=O)Nc2ccccc2)c(OC)cc1N` [4-Amino-2,5-dimethoxy-N-phenylbenzenesulfonamide] the CC50 at 24 h was greater than 90 µM. With `CC(C)(O)C(=O)Nc1ccc([N+](=O)[O-])c(C(F)(F)F)c1` [Hydroxyflutamide] the CC50 at 24 h was greater than 90 µM. With `CNC(=O)C[C@@H](N)C(=O)N[C@@H](C(=O)N[C@@H]1C(=O)N2[C@@H]1SC(C)(C)[C@@H]2C(=O)O)c1ccc(O)cc1` [Aspoxicillin] the CC50 at 24 h was greater than 50 µM.

Same assay, conditions: rat, gh3-tre-luc cells, AC50 (uM) modified / 1000, Tox21_110001=Tox21_110628; viability, 1 nM T3 present, 24 h
Work on `CCOC(=O)c1cncn1[C@H](C)c1ccccc1` [Etomidate] yielded a CC50 at 24 h greater than 20 µM.

Same assay, conditions: rat, gh3-tre-luc cells, AC50 (uM) modified / 1000, Tox21_110001=Tox21_110973; viability, 1 nM T3 present, 24 h
`C[C@H]1CCC[C@H](O)CCCCCc2cc(O)cc(O)c2C(=O)O1` [Zearalanol] showed a CC50 at 24 h greater than 50 µM.

Same assay, conditions: rat, gh3-tre-luc cells, AC50 (uM) modified / 1000, Tox21_110001=Tox21_111116; viability, 1 nM T3 present, 24 h
`Cc1cc(O)ccc1Cl` [4-Chloro-3-methylphenol] showed a CC50 at 24 h greater than 50 µM.

Same assay, conditions: rat, gh3-tre-luc cells, AC50 (uM) modified / 1000, Tox21_110001=Tox21_113513; viability, 1 nM T3 present, 24 h
Compound `C[C@@H]1[C@@H]2Cc3ccc(O)cc3[C@@]1(C)CCN2CC1CC1` [(+)-Cyclazocine] has a CC50 at 24 h greater than 50 µM.

Same assay, conditions: rat, gh3-tre-luc cells, AC50 (uM) modified / 1000, Tox21_110001=Tox21_201151; viability, 1 nM T3 present, 24 h
Compound `N#C/C=C/C#N` [Fumaronitrile] has a CC50 at 24 h of 49.9 µM.

Same assay, conditions: rat, gh3-tre-luc cells, AC50 (uM) modified / 1000, Tox21_110001=Tox21_201203; viability, 1 nM T3 present, 24 h
With `C[C@H]1CCC[C@H](O)CCCCCc2cc(O)cc(O)c2C(=O)O1` [Zearalanol] the CC50 at 24 h was 53.6 µM.

Same assay, conditions: rat, gh3-tre-luc cells, AC50 (uM) modified / 1000, Tox21_110001=Tox21_201293; viability, 1 nM T3 present, 24 h
With `Cc1cc(O)ccc1Cl` [4-Chloro-3-methylphenol] the CC50 at 24 h was greater than 90 µM.

Same assay, conditions: rat, gh3-tre-luc cells, AC50 (uM) modified / 1000, Tox21_110001=Tox21_202289; viability, 1 nM T3 present, 24 h
Compound `CCC[N+](=O)[O-]` [1-Nitropropane] has a CC50 at 24 h greater than 90 µM.

Same assay, conditions: rat, gh3-tre-luc cells, AC50 (uM) modified / 1000, Tox21_110001=Tox21_302104; viability, 1 nM T3 present, 24 h
Work on `C1CCC(C2CCCCC2)CC1` [Dicyclohexyl] yielded a CC50 at 24 h greater than 90 µM.

Same assay, conditions: rat, gh3-tre-luc cells, AC50 (uM) modified / 1000, Tox21_110001=Tox21_303313; viability, 1 nM T3 present, 24 h
With `CCCCC(CC)COP(=O)(Oc1ccccc1)Oc1ccccc1` (centres unmarked) [2-Ethylhexyl diphenyl phosphate] the CC50 at 24 h was greater than 90 µM.
